Experimental data published in patent US20230127944A1, “BROAD-SPECTRUM CARBAPENEMS” (priority 2019, published 2023).
Converted amounts (≈) assume the structure as drawn.

Key:
Assay type in all cases: cell-based
[1] = tested on: E. coli ATCC 25922 (wild-type/QC strain); test: broth microdilution MIC assay, E. coli 25922; details: Escherichia coli, ATCC25922; read-out: MIC, E. coli 25922
Method in brief: (§1)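 Steps: ≥5 colonies into cation-supplemented MH broth, shaken 3-5 h at 37° C; OD600-adjusted inoculum added to 2-fold compound dilutions (5×10^5 CFU/mL final); 16-20 h incubation at 37° C; visual MIC endpoint (no growth).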

S. aureus USA 600 = test: broth microdilution MIC assay, S. aureus USA600; details: Staphylococcus aureus; S. aureus USA600 (MRSA); read-out: MIC, S. aureus USA600
Method in brief: as §1

[2] = tested on: P. aeruginosa ATCC 27853 (wild-type/QC strain); test: broth microdilution MIC assay, P. aeruginosa 27853; details: Pseudomonas aeruginosa, ATCC27853; read-out: MIC, P. aeruginosa 27853
Method in brief: as §1

P. aeruginosa Paeβ-17 = test: broth microdilution MIC assay, P. aeruginosa Paeβ-17; details: Pseudomonas aeruginosa, read-out: MIC, P. aeruginosa Paeβ-17
Method in brief: as §1

[3] = tested on: P. aeruginosa ΔmexAB-OprM (an efflux pump knockout); test: broth microdilution MIC assay, P. aeruginosa ΔmexAB-OprM; details: Pseudomonas aeruginosa, read-out: MIC, P. aeruginosa ΔmexAB-OprM
Method in brief: as §1

[4] = tested on: S. aureus ATCC 33591 (methicillin-resistant); test: broth microdilution MIC assay, S. aureus 33591; details: Staphylococcus aureus, ATCC33591; S. aureus 33591, methicillin-resistant; read-out: MIC, S. aureus 33591
Method in brief: as §1

S. aureus USA 300 = test: broth microdilution MIC assay, S. aureus USA300; details: Staphylococcus aureus; S. aureus USA300 (MRSA); read-out: MIC, S. aureus USA300
Method in brief: as §1

[5] = tested on: P. aeruginosa 35151 (hyper-permeable strain); test: broth microdilution MIC assay, P. aeruginosa 35151; details: Pseudomonas aeruginosa, read-out: MIC, P. aeruginosa 35151
Method in brief: as §1

C[C@@H](O)[C@H]1C(=O)N2C(C(=O)O)=C(S[C@H]3C[C@H](N[C@H]4CC[C@H](NC(=N)N)C4)C3)[C@H](C)[C@H]12 [Example 73, (4R,5S,6S)-3-(((1S,3R)-3-(((1S,3S)-3-guanidinocyclopentyl)amino)cyclobutyl)thio)-6-((R)-1-hydroxyethyl)-4-methyl-7-oxo-1-azabicyclo[3.2.0]hept-2-ene-2-carboxylic acid]
MIC [1]: < 1 µg/mL
MIC (S. aureus USA 600): 1 to 4 µg/mL (≈ 2.29 to 9.14 µM)
MIC [2]: 1 to 4 µg/mL (≈ 2.29 to 9.14 µM)
MIC (P. aeruginosa Paeβ-17): 1 to 4 µg/mL (≈ 2.29 to 9.14 µM)
MIC [3]: 8 to 32 µg/mL (≈ 18.3 to 73.1 µM)
MIC [4]: 8 to 32 µg/mL (≈ 18.3 to 73.1 µM)
MIC (S. aureus USA 300): 1 to 4 µg/mL (≈ 2.29 to 9.14 µM)
MIC [5]: < 1 µg/mL

C[C@@H](O)[C@H]1C(=O)N2C(C(=O)O)=C(S[C@H]3C[C@H](N[C@H]4CC[C@@H](N)C4)C3)[C@H](C)[C@H]12 [Example 74, (4R,5S,6S)-3-(((1S,3R)-3-(((1S,3R)-3-aminocyclopentyl)amino)cyclobutyl)thio)-6-((R)-1-hydroxyethyl)-4-methyl-7-oxo-1-azabicyclo[3.2.0]hept-2-ene-2-carboxylic acid]
MIC [1]: < 1 µg/mL
MIC (S. aureus USA 600): 1 to 4 µg/mL (≈ 2.53 to 10.1 µM)
MIC [2]: 8 to 32 µg/mL (≈ 20.2 to 80.9 µM)
MIC (P. aeruginosa Paeβ-17): 1 to 4 µg/mL (≈ 2.53 to 10.1 µM)
MIC [3]: 8 to 32 µg/mL (≈ 20.2 to 80.9 µM)
MIC [4]: 8 to 32 µg/mL (≈ 20.2 to 80.9 µM)
MIC (S. aureus USA 300): 8 to 32 µg/mL (≈ 20.2 to 80.9 µM)
MIC [5]: < 1 µg/mL

C[C@@H](O)[C@H]1C(=O)N2C(C(=O)O)=C(S[C@H]3C[C@@H](N[C@H]4CC[C@H](N)C4)C3)[C@H](C)[C@H]12 [Example 75, (4R,5S,6S)-3-(((1R,3S)-3-(((1S,3S)-3-aminocyclopentyl)amino)cyclobutyl)thio)-6-((R)-1-hydroxyethyl)-4-methyl-7-oxo-1-azabicyclo[3.2.0]hept-2-ene-2-carboxylic acid]
MIC [1]: < 1 µg/mL
MIC (S. aureus USA 600): 1 to 4 µg/mL (≈ 2.53 to 10.1 µM)
MIC [2]: 1 to 4 µg/mL (≈ 2.53 to 10.1 µM)
MIC (P. aeruginosa Paeβ-17): 1 to 4 µg/mL (≈ 2.53 to 10.1 µM)
MIC [3]: 8 to 32 µg/mL (≈ 20.2 to 80.9 µM)
MIC [4]: 8 to 32 µg/mL (≈ 20.2 to 80.9 µM)
MIC (S. aureus USA 300): 1 to 4 µg/mL (≈ 2.53 to 10.1 µM)
MIC [5]: < 1 µg/mL

C[C@@H](O)[C@H]1C(=O)N2C(C(=O)O)=C(S[C@H]3C[C@@H](N[C@H]4CC[C@@H](N)C4)C3)[C@H](C)[C@H]12 [Example 76, (4R,5S,6S)-3-(((1R,3S)-3-(((1S,3R)-3-aminocyclopentyl)amino)cyclobutyl)thio)-6-((R)-1-hydroxyethyl)-4-methyl-7-oxo-1-azabicyclo[3.2.0]hept-2-ene-2-carboxylic acid]
MIC [1]: < 1 µg/mL
MIC (S. aureus USA 600): 1 to 4 µg/mL (≈ 2.53 to 10.1 µM)
MIC [2]: 1 to 4 µg/mL (≈ 2.53 to 10.1 µM)
MIC (P. aeruginosa Paeβ-17): 1 to 4 µg/mL (≈ 2.53 to 10.1 µM)
MIC [3]: 8 to 32 µg/mL (≈ 20.2 to 80.9 µM)
MIC [4]: 8 to 32 µg/mL (≈ 20.2 to 80.9 µM)
MIC (S. aureus USA 300): 1 to 4 µg/mL (≈ 2.53 to 10.1 µM)
MIC [5]: < 1 µg/mL

C[C@@H](O)[C@H]1C(=O)N2C(C(=O)O)=C(S[C@H]3C[C@@H](N[C@@H]4CC[C@H](N)C4)C3)[C@H](C)[C@H]12 [Example 77, (4R,5S,6S)-3-(((1S,3S)-3-(((1R,3S)-3-aminocyclopentyl)amino)cyclobutyl)thio)-6-((R)-1-hydroxyethyl)-4-methyl-7-oxo-1-azabicyclo[3.2.0]hept-2-ene-2-carboxylic acid]
MIC [1]: < 1 µg/mL
MIC (S. aureus USA 600): 1 to 4 µg/mL (≈ 2.53 to 10.1 µM)
MIC [2]: 1 to 4 µg/mL (≈ 2.53 to 10.1 µM)
MIC (P. aeruginosa Paeβ-17): 1 to 4 µg/mL (≈ 2.53 to 10.1 µM)
MIC [3]: 8 to 32 µg/mL (≈ 20.2 to 80.9 µM)
MIC [4]: 8 to 32 µg/mL (≈ 20.2 to 80.9 µM)
MIC (S. aureus USA 300): 1 to 4 µg/mL (≈ 2.53 to 10.1 µM)
MIC [5]: < 1 µg/mL

C[C@@H](O)[C@H]1C(=O)N2C(C(=O)O)=C(S[C@H]3C[C@@H](N[C@@H]4CC[C@@H](N)C4)C3)[C@H](C)[C@H]12 [Example 78, (4R,5S,6S)-3-(((1S,3S)-3-(((1R,3R)-3-aminocyclopentyl)amino)cyclobutyl)thio)-6-((R)-1-hydroxyethyl)-4-methyl-7-oxo-1-azabicyclo[3.2.0]hept-2-ene-2-carboxylic acid]
MIC [1]: < 1 µg/mL
MIC (S. aureus USA 600): 1 to 4 µg/mL (≈ 2.53 to 10.1 µM)
MIC [2]: 1 to 4 µg/mL (≈ 2.53 to 10.1 µM)
MIC (P. aeruginosa Paeβ-17): 1 to 4 µg/mL (≈ 2.53 to 10.1 µM)
MIC [3]: 8 to 32 µg/mL (≈ 20.2 to 80.9 µM)
MIC [4]: 8 to 32 µg/mL (≈ 20.2 to 80.9 µM)
MIC (S. aureus USA 300): 1 to 4 µg/mL (≈ 2.53 to 10.1 µM)
MIC [5]: < 1 µg/mL

C[C@@H](O)[C@H]1C(=O)N2C(C(=O)O)=C(S[C@H]3C[C@H](N[C@@H]4CC[C@H](NC(=N)N)C4)C3)[C@H](C)[C@H]12 [Example 79, (4R,5S,6S)-3-(((1R,3R)-3-(((1R,3S)-3-guanidinocyclopentyl)amino)cyclobutyl)thio)-6-((R)-1-hydroxyethyl)-4-methyl-7-oxo-1-azabicyclo[3.2.0]hept-2-ene-2-carboxylic acid]
MIC [1]: < 1 µg/mL
MIC (S. aureus USA 600): 1 to 4 µg/mL (≈ 2.29 to 9.14 µM)
MIC [2]: 1 to 4 µg/mL (≈ 2.29 to 9.14 µM)
MIC (P. aeruginosa Paeβ-17): 1 to 4 µg/mL (≈ 2.29 to 9.14 µM)
MIC [3]: 8 to 32 µg/mL (≈ 18.3 to 73.1 µM)
MIC [4]: 8 to 32 µg/mL (≈ 18.3 to 73.1 µM)
MIC (S. aureus USA 300): 1 to 4 µg/mL (≈ 2.29 to 9.14 µM)
MIC [5]: < 1 µg/mL
